Test results taken from patent US8299106B2, “Compositions of kinase inhibitors and their use for treatment of cancer and other diseases related to kinases” (Boston Biomedical, Inc., priority 2007, dated 2012).

Columns and labels:
FaDu xenograft tumors = experiment: Spherogenesis of cells from treated FaDu xenograft tumors; assay type: in vivo, mice; conditions: daily po for four days; carboplatin 30 mg/kg, 10-2 100 mg/kg; spheres after 10-14 days
Protocol: In addition, we also tested if compound 10-2 can target cancer stem cells in vivo. Six-week-old female athymic nu/nu mice were obtained from Charles River Labs (Wilmington, Mass.). Mice were injected subcutaneously on the flank with 6×10^6 FaDu cancer cells in 0.2 mL of serum-free DMEM. After xenografts reached ˜200 mm^3 in size, animals bearing FaDu xenograft tumors were administered daily with either vehicle, carboplatin (30 mg/kg), or compound 10-2 (100 mg/kg) via po for four days before sacrifice. Tumors were then collected for FaDu cells. Single cell suspensions were obtained following animal sacrifice, and sterile removal of tumors. Briefly, tumors were minced with sterile scalpels into 0.1 mm^3 pieces before being digested in 1 mg/mL collagenase/HBSS for 15-30 minutes with constant agitation. Following passage through a 40 μm mesh filter, RBCs, dead cells, and cell debris were removed by layering the cell suspension onto 1 mL of Histopaque and collecting interface layer after centrifugation at 1440×g for 30 minutes. Live cells were then counted and used to measure their ability to form spheres. […] Fresh media was added every three days, and sphere formation was determined after 10-14 days in culture. Spheres with >50 cells were scored. […]

FaDu = experiment: Colony formation assay (CFA), FaDu; assay type: cell-based; conditions: Homo sapiens, treated 6 or 24 hours, grown 7-10 days
Protocol: (§1) Cell Viability Determination: For colony formation assay, cells were plated in 6 well plates at 2000 cells per well. Twenty-four hours after plating, cells were treated with compound. Colonies were allowed to develop for 7-10 days, at which they were stained with modified Giemsa stain (Sigma). Stained colonies were then counted to determine IC50.
(§2) Compounds 5 [as shown in Example 1], 3 [as shown in Example 1], 7-1[as shown in Example 1], 10-2 [as shown in Example 3], 10-1 [as shown in Example 2], and 13-1 [as shown in Example 4] were tested for their ability to inhibit cell growth and promote cell death using the colony formation assay (CFA). Cells were treated for either 6 or twenty-four hours with the indicated compounds, and then allowed to grow for an additional 7-10 days. Cells were then stained, and colonies counted to determine IC-50 values.
(§3) Similarly, Compound 10-2 [as shown in Example 3] was tested against a wide range of cancer cell lines.

HT29 = experiment: Colony formation assay (CFA), HT29; assay type: cell-based; conditions: grown 7-10 days
Protocol: as §1, §2, §3

MDA-MB-231 = experiment: Colony formation assay (CFA), MDA-MB-231; assay type: cell-based; conditions: grown 7-10 days
Protocol: as §1, §2

SW480 cells = experiment: Hoechst side population staining of SW480 cells; assay type: cell-based; conditions: treated before Hoechst staining (50 μM), FIG. 4A
Protocol: Hoechst Side Population: SW480 cells were removed from the culture dish with trypsin and ethylenediaminetetraacetic acid (“EDTA”), pelleted by centrifugation, washed with phosphate-buffered saline (PBS), and resuspended at 37° C. in Dulbecco's modified Eagle's medium (DMEM) containing 2% FBS and 1 mM 4-(2-hydroxyethyl)-1-piperazineethanesulfonic acid (HEPES). The cells were then labeled with Hoechst 33342 (Invitrogen) at a concentration of 5 μg/mL. The labeled cells were incubated for 120 minutes at 37° C., either alone or with 50 μM verapamil (Sigma-Aldrich, St. Louis). After staining, the cells were suspended in Hanks' balanced saline solution (HBSS; Invitrogen) containing 2% FBS and 1 mM HEPES, passed a through 40 μm mesh filter, and maintained at 4° C. until flow cytometry analysis. The Hoechst dye was excited at 350 nm, and its fluorescence was measured at two wavelengths using a 450 DF10 (450/20 nm band-pass filter) and a 675LP (675 nm long-pass edge filter) optical filter. The gating on forward and side scatter was not stringent, and only debris was excluded (Goodell et al., 1996 J Exp Med 183, 1797-806).
SW480 cells were stained with Hoechst. The side population (shown in FIG. 4A, upper left panel gated area) was sorted out to enrich the cancer stem cells. […]

[1] = tested on: Hoechst side population of SW480 cells; experiment: Colony formation assay, Hoechst side population vs non-side population; assay type: cell-based; conditions: colony formation assays, FIG. 4B
Protocol: as §1
Hoechst Side Population: SW480 cells were removed from the culture dish with trypsin and ethylenediaminetetraacetic acid (“EDTA”), pelleted by centrifugation, washed with phosphate-buffered saline (PBS), and resuspended at 37° C. in Dulbecco's modified Eagle's medium (DMEM) containing 2% FBS and 1 mM 4-(2-hydroxyethyl)-1-piperazineethanesulfonic acid (HEPES). The cells were then labeled with Hoechst 33342 (Invitrogen) at a concentration of 5 μg/mL. The labeled cells were incubated for 120 minutes at 37° C., either alone or with 50 μM verapamil (Sigma-Aldrich, St. Louis). After staining, the cells were suspended in Hanks' balanced saline solution (HBSS; Invitrogen) containing 2% FBS and 1 mM HEPES, passed a through 40 μm mesh filter, and maintained at 4° C. until flow cytometry analysis. The Hoechst dye was excited at 350 nm, and its fluorescence was measured at two wavelengths using a 450 DF10 (450/20 nm band-pass filter) and a 675LP (675 nm long-pass edge filter) optical filter. […]

[2] = Homo sapiens, HT-29, treated 6 or 24 hours
[3] = Homo sapiens, MDA-MB-231, treated 6 or 24 hours

SMILES	IC50 (HT29; [2])	IC50 (MDA-MB-231; [3])	also measured
N.N.O=C([O-])C1(C(=O)[O-])CCC1.[Pt+2] [carboplatin]			spherogenesis of tumor cells after in vivo treatment (FaDu xenograft tumors): unchanged spherogenesis
CCN(CC)CCNC(C)c1c(C)[nH]c(/C=C2\C(=O)Nc3ccc(-c4csc(-c5cccnc5)n4)cc32)c1C (stereo not drawn) [Compound 13-2]			IC50 (FaDu): 0.3 to 0.4 µM
Cc1nc(-c2ccc3c(c2)/C(=C/c2[nH]c(C)c(C(=O)N4CCN(C)CC4)c2C)C(=O)N3)cs1 [Compound 7-1]	6 to 10 µM	6 to 10 µM	
COc1ccc(CCN(C)CCCC(C#N)(c2ccc(OC)c(OC)c2)C(C)C)cc1OC (stereo not drawn) [Verapamil]			effect on Hoechst side population (SW480 cells): loss of the side population
Cc1[nH]c(/C=C2\C(=O)Nc3ccc(-c4csc(-c5ccccc5)n4)cc32)c(C)c1C(=O)N1CCN(C)CC1 [Compound 10-1]	1.5 to 3 µM	0.8 to 1.5 µM	
Cc1nc(-c2ccc3c(c2)CC(=O)N3)cs1 [Compound 3]			IC50 (HT29; treated 6 or 24 hours): 50 to 300 µM; IC50 (MDA-MB-231; treated 6 or 24 hours): 50 to 300 µM
Cc1[nH]c(/C=C2\C(=O)Nc3ccc(-c4csc(-c5cccnc5)n4)cc32)c(C)c1C(=O)N1CCN(C)CC1 [Compound 13-1]	0.4 to 0.8 µM	0.1 to 0.25 µM	
COc1cccc2c1C(=O)c1c(O)c3c(c(O)c1C2=O)C[C@@](O)(C(=O)CO)C[C@@H]3O[C@H]1C[C@H](N)[C@H](O)[C@H](C)O1 [Doxorubicin]			side population relative to non-side population [1]: more resistant
